In ChEMBL document CHEMBL3739395, “Discovery and optimisation of 1-acyl-2-benzylpyrrolidines as potent dual orexin receptor antagonists” (Medchemcomm, 2015):
Activity calls are given as the source filed them. No cut-off for these calls is given here.

Tests used:
[1] = biological target: T1, Orexin/Hypocretin receptor type 1 (Rattus norvegicus) (UniProt P56718); test: Insurmountable antagonist activity against rat orexin-1 receptor expressed in CHO cells assessed as calcium release at IC50 preincubated for 120 mins followed by addition of orexin-A by Cheng-Prusoff equation analysis; assay type: functional, cell-based
T1 sequence (whole entry): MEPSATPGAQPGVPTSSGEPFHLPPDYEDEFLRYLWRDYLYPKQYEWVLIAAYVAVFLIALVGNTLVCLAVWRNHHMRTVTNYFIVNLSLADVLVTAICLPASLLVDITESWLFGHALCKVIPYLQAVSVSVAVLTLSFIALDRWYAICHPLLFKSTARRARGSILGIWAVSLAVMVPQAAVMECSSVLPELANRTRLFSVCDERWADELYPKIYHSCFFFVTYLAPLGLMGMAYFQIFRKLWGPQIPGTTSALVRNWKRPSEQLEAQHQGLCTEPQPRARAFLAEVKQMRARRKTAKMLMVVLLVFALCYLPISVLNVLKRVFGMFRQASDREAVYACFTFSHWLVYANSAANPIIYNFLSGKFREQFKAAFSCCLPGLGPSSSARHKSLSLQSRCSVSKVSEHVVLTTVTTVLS

[2] = Drug uptake in Wistar rat cerebrospinal fluid at 100 mg/kg, po measured 3 hrs post dose; assay type: ADME, organism-based; conditions: read-out: Drug uptake
Rattus norvegicus [3] = test: Increase in time spent in quiet wake state in Wistar rat sleep model at 100 mg/kg, po administered as single dose during first 6 hrs of night active period post dose relative to vehicle control; assay type: functional
[4] = biological target: T2, Orexin/Hypocretin receptor type 1 (Homo sapiens) (UniProt O43613); test: Insurmountable antagonist activity against human orexin-1 receptor expressed in CHO cells assessed as calcium release at IC50 preincubated for 120 mins followed by addition of orexin-A by Cheng-Prusoff equation analysis; assay type: functional, cell-based
T2 sequence (whole entry): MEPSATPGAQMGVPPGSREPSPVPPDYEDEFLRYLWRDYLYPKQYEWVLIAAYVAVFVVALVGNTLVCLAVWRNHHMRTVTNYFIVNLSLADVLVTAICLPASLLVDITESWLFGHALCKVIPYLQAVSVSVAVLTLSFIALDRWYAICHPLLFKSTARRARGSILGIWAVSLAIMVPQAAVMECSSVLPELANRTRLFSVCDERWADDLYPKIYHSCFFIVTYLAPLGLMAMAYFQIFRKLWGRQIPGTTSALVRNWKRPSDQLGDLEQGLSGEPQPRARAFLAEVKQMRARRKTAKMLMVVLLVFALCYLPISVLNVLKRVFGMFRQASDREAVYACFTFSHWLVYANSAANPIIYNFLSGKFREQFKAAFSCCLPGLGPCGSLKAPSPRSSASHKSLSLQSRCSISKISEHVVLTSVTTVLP

[5] = Intrinsic clearance in human liver microsomes at 1 uM; assay type: ADME; conditions: read-out: CLH
[6] = biological target: T2, Orexin/Hypocretin receptor type 1 (Homo sapiens); conditions: CHO
Description: Inhibition of human orexin-1 receptor expressed in CHO cells assessed as occupancy half life preincubated for 120 mins followed by stimulation with orexin-A post compound washout measured at 0 to 30 mins by FLIPR assay

Rattus norvegicus [7] = test: Increase in time spent in non-rapid eye movement sleep in Wistar rat sleep model at 100 mg/kg, po administered as single dose during first 6 hrs of night active period post dose relative to vehicle control; assay type: functional
[8] = Fraction unbound in rat brain; assay type: ADME, tissue-based
[9] = biological target: T2, Orexin/Hypocretin receptor type 1 (Homo sapiens); test: Inhibition of human orexin-1 receptor expressed in CHO cells assessed as time duration for Kb change preincubated for 120 mins followed by stimulation with orexin-A post compound washout by FLIPR assay; assay type: cell-based
[10] = biological target: T3, Orexin receptor type 2 (Homo sapiens) (UniProt O43614); test: Insurmountable antagonist activity against human orexin-2 receptor expressed in CHO cells assessed as calcium release at IC50 preincubated for 120 mins followed by addition of orexin-A by Cheng-Prusoff equation analysis; assay type: functional, cell-based
T3 sequence (whole entry): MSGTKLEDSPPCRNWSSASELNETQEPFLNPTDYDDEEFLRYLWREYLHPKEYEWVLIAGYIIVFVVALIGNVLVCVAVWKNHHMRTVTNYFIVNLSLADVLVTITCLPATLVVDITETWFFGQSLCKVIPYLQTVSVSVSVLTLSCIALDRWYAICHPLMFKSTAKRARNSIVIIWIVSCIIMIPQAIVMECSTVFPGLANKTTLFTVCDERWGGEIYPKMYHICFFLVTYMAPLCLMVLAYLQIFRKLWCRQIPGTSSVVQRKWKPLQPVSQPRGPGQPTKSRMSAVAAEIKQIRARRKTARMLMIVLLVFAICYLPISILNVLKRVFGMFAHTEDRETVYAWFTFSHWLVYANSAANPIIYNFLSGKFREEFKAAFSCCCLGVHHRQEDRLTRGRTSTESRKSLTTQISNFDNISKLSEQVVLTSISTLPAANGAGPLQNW

[11] = Ratio of drug level in brain to plasma of rat; assay type: ADME; conditions: brain and plasma, read-out: BPR
[12] = Fraction unbound in rat plasma; assay type: ADME, cell-free
[13] = biological target: T3, Orexin receptor type 2 (Homo sapiens); conditions: CHO
Description: Inhibition of human orexin-2 receptor expressed in CHO cells assessed as occupancy half life preincubated for 120 mins followed by stimulation with orexin-A post compound washout measured at 0 to 30 mins by FLIPR assay

Rattus norvegicus [14] = test: Increase in time spent in rapid eye movement sleep in Wistar rat sleep model at 100 mg/kg, po administered as single dose during first 6 hrs of night active period post dose relative to vehicle control; assay type: functional
[15] = biological target: T3, Orexin receptor type 2 (Homo sapiens); test: Competitive antagonist activity against human orexin-2 receptor expressed in CHO cells assessed as shift in orexin-A CRC at IC50 incubated for 120 mins in presence of orexin-A by Cheng-Prusoff equation analysis; assay type: cell-based
Rattus norvegicus [16] = test: Reduction in home cage activity in Wistar rat sleep model at 100 mg/kg, po administered as single dose during first 6 hrs of night active period post dose relative to vehicle control; assay type: functional; parameters: scale not given: the % may be the effect or the level left
[17] = biological target: T3, Orexin receptor type 2 (Homo sapiens); test: Inhibition of human orexin-2 receptor expressed in CHO cells assessed as time duration for Kb change preincubated for 120 mins followed by stimulation with orexin-A post compound washout by FLIPR assay; assay type: cell-based
[18] = biological target: T4, Orexin receptor type 2 (Rattus norvegicus) (UniProt P56719); test: Insurmountable antagonist activity against rat orexin-2 receptor expressed in CHO cells assessed as calcium release at IC50 preincubated for 120 mins followed by addition of orexin-A by Cheng-Prusoff equation analysis; assay type: functional, cell-based
T4 sequence (whole entry): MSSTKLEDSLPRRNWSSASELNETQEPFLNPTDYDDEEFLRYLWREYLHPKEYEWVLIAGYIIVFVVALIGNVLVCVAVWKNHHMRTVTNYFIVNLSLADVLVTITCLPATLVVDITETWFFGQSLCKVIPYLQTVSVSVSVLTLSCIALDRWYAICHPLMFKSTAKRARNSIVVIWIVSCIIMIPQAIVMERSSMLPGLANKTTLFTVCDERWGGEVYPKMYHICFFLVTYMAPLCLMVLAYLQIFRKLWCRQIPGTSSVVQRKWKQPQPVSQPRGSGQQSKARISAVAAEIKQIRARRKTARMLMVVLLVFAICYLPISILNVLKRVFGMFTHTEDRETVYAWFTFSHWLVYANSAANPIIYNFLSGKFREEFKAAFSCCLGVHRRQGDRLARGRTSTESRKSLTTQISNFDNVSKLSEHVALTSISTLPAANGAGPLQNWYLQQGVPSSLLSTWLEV

[19] = biological target: T2, Orexin/Hypocretin receptor type 1 (Homo sapiens); test: Competitive antagonist activity against human orexin-1 receptor expressed in CHO cells assessed as shift in orexin-A CRC at IC50 incubated for 120 mins in presence of orexin-A by Cheng-Prusoff equation analysis; assay type: cell-based
[20] = biological target: T5, Orexin/Hypocretin receptor type 1 (Homo sapiens, UniProt O43613); test: Inhibition of human orexin-1 receptor expressed in CHO cells assessed as calcium release preincubated for 120 mins followed by addition of orexin-A by fluo-4 AM based-FLIPR analysis; assay type: functional, cell-based
T5 sequence (O43613 whole entry): T2 sequence (whole entry)

Rattus norvegicus [21] = test: Reduction in time spent in active wake state in Wistar rat sleep model at 100 mg/kg, po administered as single dose during first 6 hrs of night active period post dose relative to vehicle control; assay type: functional; parameters: scale not given: the % may be the effect or the level left
Orexin receptor type 2 = biological target: T6, Orexin receptor type 2 (Homo sapiens, UniProt O43614); test: Inhibition of human orexin-2 receptor expressed in CHO cells assessed as calcium release preincubated for 120 mins followed by addition of orexin-A by fluo-4 AM based-FLIPR analysis; assay type: functional, cell-based
T6 sequence (O43614 whole entry): T3 sequence (whole entry)

Brain = test: Free drug level in rat brain; assay type: ADME, tissue-based; conditions: in vivo
[22] = Intrinsic clearance in rat liver microsomes at 1 uM; assay type: ADME; conditions: read-out: CLH
Rattus norvegicus [23] = test: Sleep promoting effect in Wistar rat sleep model at 100 mg/kg, po administered as single dose during first 6 hrs of night active period post dose relative to vehicle control; assay type: functional, organism-based

COc1ccc(C[C@@H]2CCCN2C(=O)c2nc(C)sc2-c2ccc3c(c2)OCO3)cc1OC
Kb [1]: 7.3 nM | concentration at 3 h [2]: 0.133 µg/mL | Activity (Rattus norvegicus [3]): 17% | Kb [4]: 5.3 nM | microsomal CLint at 1 µM [5]: 197 µL/min/mg | T1/2 [6]: 1.1 min | Activity (Rattus norvegicus [7]): 18% | fraction unbound [8]: 0.04 | TIME [9]: 0.0833 h | Kb [10]: 1.4 nM | Kp [11]: 0.68 | fraction unbound [12]: 0.027 | T1/2 [13]: 5.4 min | Activity (Rattus norvegicus [14]): 84% | inhibition [15]: Active | Activity (Rattus norvegicus [16]): 47% | TIME [17]: 0.333 h | Kb [18]: 1.7 nM | inhibition [19]: Active | IC50 [20]: 11 nM | Activity (Rattus norvegicus [21]): -29% | IC50 (Orexin receptor type 2): 6.6 nM | Drug uptake(free) (Brain): 60 nM | microsomal CLint at 1 µM [22]: > 1250 µL/min/mg | Activity (Rattus norvegicus [23]): Active
